Reference: US7547716B2, “Sulfonamide derivatives” (Institute of Medicinal Molecular Design, Inc., priority 2001, dated 2009)
Where a name gives a salt, the structure may show the parent alone.

system: Jurkat cells; experiment: Jurkat cell proliferation, compound alone or combined with bleomycin, living cells counted by MTS method; type: cell-based; parameters: key: ++ indicates observation of remarkable enhancement; + indicates moderated enhancement; settings: enhancement of the decrease in Jurkat cell survival rate by bleomycin 5 μg/ml or 10 μg/ml, 36 hours incubation
Procedure: By using the compounds synthesized above, effects on proliferation of Jurkat cells by sole administration and inhibitory effects on cell proliferation by administration in combination with bleomycin were examined. Materials and methods are as follows. Jurkat cells obtained from Dainippon Pharmaceutical Co. Ltd. were inoculated at about 10,000 cells per well in a 96 well culture plate, and incubated in 10% bovine fetal serum (Irvine Scientific) supplemented with RPMI1640(ICN) medium in 5% CO2 incubator at 37° C. […] 36 hours after the incubation, the number of living cells was counted by the MTS method.
More specifically, 20 μl of CellTiter96™ AQueous One Solution (Promega) was added per one well, and after the cells were incubated for additional one hour, an absorbance at 490 nm was measured by using a microplate reader. The same culture added with DMSO as a solvent at final concentration of 0.25% was used as a control. The number of cells in the control was considered as 100% survival rate, and for each compound, survival rates by sole administration or a combined administration were calculated.

Row | Compound | Activity
1 | 5-amino-N-[(2-fluorophenyl)methyl-1-naphthalenesulfonamide hydrochloride [Compound 9] | +
2 | 5-amino-N-[[[4′-methyl-1,1′-biphenyl]-2-yl]methyl]-1-naphthalenesulfonamide hydrochloride [Compound 23] | +
3 | Nc1cccc2c(S(=O)(=O)NCc3cccc4ccccc34)cccc12 [Compound 1, 5-amino-N-[(1-naphthalenyl)methyl]-1-naphthalenesulfonamide hydrochloride] | +
4 | Nc1cccc2c(S(=O)(=O)NCc3ccccc3Cl)cccc12 [Compound 3, 5-amino-N-[(2-chlorophenyl)methyl]-1-naphthalenesulfonamide hydrochloride] | +
5 | Nc1cccc2c(S(=O)(=O)NCc3ccc(Cl)cc3)cccc12 [Compound 5, 5-amino-N-[(4-chlorophenyl)methyl]-1-naphthalenesulfonamide hydrochloride] | +
6 | Nc1cccc2c(S(=O)(=O)NCc3ccc(Cl)cc3Cl)cccc12 [Compound 6, 5-amino-N-[(2,4-dichlorophenyl)methyl]-1-naphthalenesulfonamide hydrochloride] | ++
7 | Nc1cccc2c(S(=O)(=O)NCc3c(F)cccc3F)cccc12 [Compound 12, 5-amino-N-[(2,6-difluorophenyl)methyl]-1-naphthalenesulfonamide hydrochloride] | ++
8 | Nc1cccc2c(S(=O)(=O)NCc3cc(F)cc(F)c3)cccc12 [Compound 14, 5-amino-N-[(3,5-difluorophenyl)methyl]-1-naphthalenesulfonamide hydrochloride] | +
9 | Cc1ccccc1CNS(=O)(=O)c1cccc2c(N)cccc12 [Compound 15, 5-amino-N-[(2-methylphenyl)methyl]-1-naphthalenesulfonamide hydrochloride] | +
10 | CC(C)(C)c1ccc(CNS(=O)(=O)c2cccc3c(N)cccc23)cc1 [Compound 18, 5-amino-N-[[4-(1,1-dimethylethyl)phenyl]methyl]-1-naphthalenesulfonamide hydrochloride] | ++
11 | Nc1cccc2c(S(=O)(=O)NCc3ccccc3C(F)(F)F)cccc12 [Compound 19, 5-amino-N-[[2-(trifluoromethyl)phenyl]methyl]-1-naphthalenesulfonamide hydrochloride] | ++
12 | Nc1cccc2c(S(=O)(=O)NCc3ccc(C(F)(F)F)cc3)cccc12 [Compound 21, 5-amino-N-[[4-(trifluoromethyl)phenyl]methyl]-1-naphthalenesulfonamide hydrochloride] | ++
13 | COc1ccccc1CNS(=O)(=O)c1cccc2c(N)cccc12 [Compound 24, 5-amino-N-[(2-methoxyphenyl)methyl]-1-naphthalenesulfonamide hydrochloride] | ++
14 | COc1cccc(CNS(=O)(=O)c2cccc3c(N)cccc23)c1 [Compound 25, 5-amino-N-[(3-methoxyphenyl)methyl]-1-naphthalenesulfonamide hydrochloride] | ++
15 | COc1ccc(CNS(=O)(=O)c2cccc3c(N)cccc23)cc1 [Compound 26, 5-amino-N-[(4-methoxyphenyl)methyl]-1-naphthalenesulfonamide hydrochloride] | +
16 | COc1cccc(CNS(=O)(=O)c2cccc3c(N)cccc23)c1OC [Compound 28, 5-amino-N-[(2,3-dimethoxyphenyl)methyl]-1-naphthalenesulfonamide hydrochloride] | ++
17 | COc1cc(CNS(=O)(=O)c2cccc3c(N)cccc23)cc(OC)c1 [Compound 31, 5-amino-N-[(3,5-dimethoxyphenyl)methyl]-1-naphthalenesulfonamide hydrochloride] | ++
18 | Nc1cccc2c(S(=O)(=O)NCc3cccc(OCc4ccccc4)c3)cccc12 [Compound 35, 5-amino-N-[[3-(phenylmethoxy)phenyl]methyl]-1-naphthalenesulfonamide hydrochloride] | +
19 | Nc1cccc2c(S(=O)(=O)NCc3ccc(OCc4ccccc4)cc3)cccc12 [Compound 36, 5-amino-N-[[4-(phenylmethoxy)phenyl]methyl]-1-naphthalenesulfonamide hydrochloride] | +
20 | Nc1cccc2c(S(=O)(=O)NCc3cccc(O)c3)cccc12 [Compound 38, 5-amino-N-[(3-hydroxyphenyl)methyl]-1-naphthalenesulfonamide hydrochloride] | +
21 | Nc1cccc2c(S(=O)(=O)NCc3cccc([N+](=O)[O-])c3)cccc12 [Compound 41, 5-amino-N-[(3 nitrophenyl)methyl]-1-naphthalenesulfonamide hydrochloride] | ++
22 | Nc1cccc2c(S(=O)(=O)NCc3ccc([N+](=O)[O-])cc3)cccc12 [Compound 42, 5-amino-N-[(4-nitrophenyl)methyl]-1-naphthalenesulfonamide hydrochloride] | ++
23 | Nc1ccccc1CNS(=O)(=O)c1cccc2c(N)cccc12 [Compound 43, 5-amino-N-[(2-aminophenyl)methyl]-1-naphthalenesulfonamide dihydrochloride] | +
24 | Nc1cccc(CNS(=O)(=O)c2cccc3c(N)cccc23)c1 [Compound 44, 5-amino-N-[(3-aminophenyl)methyl]-1-naphthalenesulfonamide dihydrochloride] | +
25 | Nc1cccc2c(S(=O)(=O)NCc3ccc(C(=O)O)cc3)cccc12 [Compound 48, 4-[[[(5-amino-1-naphthalenyl)sulfonyl]-amino]methyl]benzoic acid hydrochloride] | +
26 | Nc1cccc2c(S(=O)(=O)NCc3ccccn3)cccc12 [Compound 53, 5-amino-N-(2-pyridinylmethyl)-1-naphthalenesulfonamide dihydrochloride] | +
27 | CC(NS(=O)(=O)c1cccc2c(N)cccc12)c1ccccc1 (stereo not drawn) [Compound 55, 5-amino-N-(1-phenylethyl)-1-naphthalenesulfonamide] | +
28 | CC(NS(=O)(=O)c1cccc2c(N)cccc12)c1cccc2ccccc12 (stereo not drawn) [Compound 56, 5-amino-N-[1-(1-naphthalenyl)ethyl]-1-naphthalenesulfonamide hydrochloride] | +
29 | Nc1cccc2c(S(=O)(=O)NC3CCCc4ccccc43)cccc12 (stereo not drawn) [Compound 58, 5-amino-N-(1,2,3,4-tetrahydro-1-naphthalenyl)-1-naphthalenesulfonamide] | +
30 | Nc1cccc2c(S(=O)(=O)Nc3ccccc3)cccc12 [Compound 64, 5-amino-N-phenyl-1-naphthalenesulfonamide hydrochloride] | +
